# Experiments:
# HCT-116 = experiment: cells; conditions: Homo sapiens, HCT-116, 48 h
# Description: Antiproliferative activity against human HCT-116 cells incubated for 48 hrs by CCK-8 assay
# [1] = target: ATP-dependent Clp protease proteolytic subunit, mitochondrial (Homo sapiens, UniProt Q16740); experiment: Agonist activity at human CLpP (57 to 277 amino acids) expressed in Escherichia coli using fluorogenic peptide AC-WLA-AMC as substrate incubated for 10 mins by fluorescence based assay
# SW480 = experiment: cells; conditions: Homo sapiens, SW480, 48 h
# Description: Antiproliferative activity against human SW480 cells incubated for 48 hrs by CCK-8 assay
# HCT-15 = experiment: cells; conditions: Homo sapiens, HCT-15, 48 h
# Description: Antiproliferative activity against human HCT-15 cells incubated for 48 hrs by CCK-8 assay
# SW-620 = experiment: cells; conditions: Homo sapiens, SW-620, 48 h
# Description: Antiproliferative activity against human SW-620 cells incubated for 48 hrs by CCK-8 assay
# DLD-1 = experiment: cells; conditions: Homo sapiens, DLD-1, 48 h
# Description: Antiproliferative activity against human DLD-1 cells incubated for 48 hrs by CCK-8 assay
# HT-29 = experiment: cells; conditions: Homo sapiens, HT-29, 48 h
# Description: Antiproliferative activity against human HT-29 cells incubated for 48 hrs by CCK-8 assay
# [2] = Stability in human liver microsomes assessed as half life at 1.5 uM measured upto 90 mins in presence of NADPH by LC/MS analysis; assay type: ADME, Microsome; conditions: microsomes, 1.5 h, 1.5 µM
# [3] = Stability in human liver microsomes assessed as intrinsic clearance at 1.5 uM measured upto 90 mins in presence of NADPH by LC/MS analysis; assay type: ADME, Microsome; conditions: read-out: CLH
# [4] = Stability in rat liver microsomes assessed as half life at 1.5 uM measured upto 90 mins in presence of NADPH by LC/MS analysis; assay type: ADME, Microsome; conditions: 1.5 h
# [5] = 1-octanol/water partition coefficient, log P of the compound agitated for 4 hrs measured by shake flask assay based HPLC analysis; assay type: physicochemical
# [6] = Aqueous solubility of the compound agitated for 24 hrs by HPLC analysis; assay type: physicochemical; conditions: buffer
# Sequence of ATP-dependent Clp protease proteolytic subunit, mitochondrial (Q16740 whole entry, the tested form may be a part): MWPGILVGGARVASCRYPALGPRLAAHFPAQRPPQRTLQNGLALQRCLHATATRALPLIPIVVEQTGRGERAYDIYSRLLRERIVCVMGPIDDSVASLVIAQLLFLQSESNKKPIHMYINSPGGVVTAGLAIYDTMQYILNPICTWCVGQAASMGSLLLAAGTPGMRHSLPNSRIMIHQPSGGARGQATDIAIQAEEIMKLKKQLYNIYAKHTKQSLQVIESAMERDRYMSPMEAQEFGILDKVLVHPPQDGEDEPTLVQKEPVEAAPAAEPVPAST
SMILES,IC50 (HCT-116) [nM],EC50 [1] [nM],other results
Cc1ccccc1CN1CCn2c1nc(=O)c1c2CCN(C(=O)Cc2ccccc2)C1,> 10000,> 10000,–
Cc1ccccc1CN1CCn2c1nc(=O)c1c2CCN(Cc2ccccc2C#N)C1,> 10000,660,–
Cc1ccccc1CN1CCn2c1nc(=O)c1c2CCN(Cc2ccncc2)C1,> 10000,1610,–
Cc1ccccc1CN1CCn2c1nc(=O)c1c2CCN(Cc2ccc(F)c(F)c2)C1,5000,320,–
Cc1ccccc1CN1CCn2c1nc(=O)c1c2CCN(Cc2cccnc2)C1,> 10000,1640,–
Cc1ccccc1CN1CCn2c1nc(=O)c1c2CCN(Cc2ccc(F)cc2F)C1,> 10000,980,–
Cc1ccccc1CN1CCn2c1nc(=O)c1c2CCN(CC(C)C)C1,> 10000,> 10000,–
CCN1CCc2c(c(=O)nc3n2CCN3Cc2ccccc2C)C1,> 10000,> 10000,–
O=C(c1ccc(F)cc1)C1CCN(CCn2c(=O)[nH]c3ccccc3c2=O)CC1 [KETANSERIN],–,–,t1/2 [2]: 34 min; CLint scaled at 1.5 µM [3]: 51.1 mL/min/kg; t1/2 [4]: 18.5 min
Cc1ccccc1CN1CCn2c1nc(=O)c1c2CCN(Cc2ccc(F)cc2)C1,10000,640,–
Cc1ccccc1CN1CCn2c1nc(=O)c1c2C(F)(F)CN(Cc2ccccc2)C1,5100,500,–
Cc1ccccc1CN1CCn2c1nc(=O)c1c2CCN(C(=O)c2ccccc2)C1,> 10000,> 10000,–
CN1CCn2c1nc(=O)c1c2CCN(Cc2ccccc2)C1,> 10000,> 10000,–
Cc1ccc(CN2CCc3c(c(=O)nc4n3CCN4Cc3ccccc3C)C2)cc1,5310,640,–
CCN1CCn2c1nc(=O)c1c2CCN(Cc2ccccc2)C1,> 10000,> 10000,–
O=c1nc2n(c3c1CN(Cc1ccccc1)CC3)CCN2CC1CC1,> 10000,1220,–
Cc1ccccc1CN1CCn2c1nc(=O)c1c2CCN(CCCCc2ccccc2)C1,> 10000,> 10000,–
O=c1nc2n(c3c1CN(Cc1ccccc1)CC3)CCN2Cc1ccncc1,> 10000,1130,–
Cc1ccccc1CN1CCn2c1nc(=O)c1c2CCN(CC2CCCCC2)C1,> 10000,2410,–
Cc1ccccc1CN1CCCn2c1nc(=O)c1c2CCN(Cc2ccccc2)C1,> 10000,3520,–
Cc1ccccc1CN1CCn2c1nc(=O)c1c2CCN(CC2CC2)C1,> 10000,> 10000,–
O=c1nc2n(c3c1CN(Cc1ccccc1)CC3)CCN2Cc1ccco1,> 10000,1760,–
O=c1nc2n(c3c1CN(Cc1ccccc1)CC3)CCN2c1ccccc1,> 10000,1040,–
O=c1nc2n(c3c1CN(Cc1ccccc1)CC3)CCN2CCc1ccccc1,> 10000,420,–
O=c1nc2n(c3c1CN(Cc1ccccc1)CC3)CCN2Cc1cccnc1,> 10000,1040,–
Cc1ccccc1CN1CCn2c1nc(=O)c1c2CCN(CCc2ccccc2)C1,6010,1090,–
Cc1ccccc1CN1C(=O)C2=C(CCN(Cc3ccccc3)C2)N2CCN=C12 [DORDAVIPRONE],–,–,logP at 4 h [5]: 2.93; solubility at 24 h [6]: 200 µM; CLint scaled at 1.5 µM [3]: 187 mL/min/kg; t1/2 [4]: 10.5 min
Cc1ccccc1CN1CCn2c1nc(=O)c1c2CCN(c2nncs2)C1,> 10000,> 10000,–

# Now from value to compound, other results behind:
IC50 (HCT-116) [nM],EC50 [1] [nM],SMILES,other results
610,360,O=c1nc2n(c3c1CN(Cc1ccccc1)CC3)CCN2Cc1cccc(Br)c1,–
310,360,O=c1nc2n(c3c1CN(Cc1ccccc1)CC3)CCN2Cc1ccc2ccccc2c1,–
100,300,O=c1nc2n(c3c1CN(Cc1ccccc1)CC3)CCN2Cc1ccc(F)c(F)c1,IC50 (SW480): 120 nM; IC50 (HCT-15): 200 nM; IC50 (SW-620): 150 nM; IC50 (DLD-1): 150 nM; IC50 (HT-29): 50 nM
550,400,O=c1nc2n(c3c1CN(Cc1ccccc1)CC3)CCN2Cc1ccc(Br)cc1,–
80,130,O=c1nc2n(c3c1CN(Cc1ccccc1)CC3)CCN2Cc1ccc(F)cc1,IC50 (SW480): 170 nM; IC50 (HCT-15): 210 nM; IC50 (SW-620): 190 nM; IC50 (DLD-1): 90 nM; IC50 (HT-29): 400 nM
300,390,Cc1cccc(CN2CCn3c2nc(=O)c2c3CCN(Cc3ccccc3)C2)c1,–
190,280,O=c1nc2n(c3c1CN(Cc1ccccc1)CC3)CCN2Cc1cccc(Cl)c1,–
220,260,O=c1nc2n(c3c1CN(Cc1ccccc1)CC3)CCN2Cc1cccc(F)c1,–
110,210,O=c1nc2n(c3c1CN(Cc1ccccc1)CC3)CCN2Cc1ccc(Br)c(F)c1,–
4200,450,CC(C)CCN1CCn2c1nc(=O)c1c2CCN(Cc2ccccc2)C1,–
290,440,O=c1nc2n(c3c1CN(Cc1ccccc1)CC3)CCN2Cc1ccccc1F,–
80,300,O=c1nc2n(c3c1CN(Cc1ccccc1)CC3)CCN2Cc1ccc(Cl)cc1,IC50 (SW480): 100 nM; IC50 (HCT-15): 250 nM; IC50 (SW-620): 170 nM; IC50 (DLD-1): 100 nM; IC50 (HT-29): 70 nM
520,120,O=c1nc2n(c3c1CN(Cc1ccccc1)CC3)CCN2Cc1ccccc1,–
2460,130,O=c1nc2n(c3c1CN(Cc1ccccc1)CC3)CCN2CC1CCCCC1,–
100,160,O=c1nc2n(c3c1CN(Cc1ccccc1)CC3)CCN2Cc1ccc(F)cc1F,IC50 (SW480): 120 nM; IC50 (HCT-15): 120 nM; IC50 (SW-620): 90 nM; IC50 (DLD-1): 90 nM; IC50 (HT-29): 80 nM
310,190,O=c1nc2n(c3c1CN(Cc1ccccc1)CC3)CCN2Cc1ccccc1Cl,–
320,290,O=c1nc2n(c3c1CN(Cc1ccccc1)CC3)CCN2Cc1ccc(C(F)(F)F)cc1,–
1340,110,COc1ccccc1CN1CCn2c1nc(=O)c1c2CCN(Cc2ccccc2)C1,–
1500,510,Cc1cccc(CN2CCc3c(c(=O)nc4n3CCN4Cc3ccccc3C)C2)c1,–
1200,100,COc1cccc(CN2CCn3c2nc(=O)c2c3CCN(Cc3ccccc3)C2)c1,–
500,580,Cc1ccccc1CN1CCn2c1nc(=O)c1c2CCN(Cc2cccc(C#N)c2)C1,–
210,320,Cc1ccc(CN2CCn3c2nc(=O)c2c3CCN(Cc3ccccc3)C2)cc1,–
1160,500,COc1ccc(CN2CCn3c2nc(=O)c2c3CCN(Cc3ccccc3)C2)cc1,–

# From ChEMBL document CHEMBL5154926, “Discovery of a Novel Series of Imipridone Compounds as Homo sapiens Caseinolytic Protease P Agonists with Potent Antitumor Activities In Vitro and In Vivo” (J Med Chem, 2022)
